Tests used:
Test in all cases: relative viability (nuclei count vs DMSO), 5 days (fraction); higher = more cells survive
[1] = system: NCI-H2023
Method in brief: (§1)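 Relative viability divides the nuclei count in treated wells by that in vehicle wells. Lung cancer cell lines were seeded in 1536-well plates, dosed by pin tool the next day, and fixed and stained after 5 days in one step with final 0.05% Triton X-100, 1% formaldehyde and 1 ug/ml Hoechst. Dosing was a single drug or a fixed anchor-drug dose plus five library-drug doses (not always all listed) in √10 steps, and values are medians of duplicate plates imaged at 4×.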

[2] = system: HCC-44
Method in brief: as §1

[3] = system: HCC-78
Method in brief: as §1

[4] = system: ChaGo-K-1
Method in brief: as §1

[5] = system: LOU-NH91
Method in brief: as §1

[6] = system: NCI-H838
Method in brief: as §1

[7] = system: HCC-366
Method in brief: as §1

[8] = system: NCI-H1734
Method in brief: as §1

[9] = system: HOP-62
Method in brief: as §1

[10] = system: NCI-H596
Method in brief: as §1

[11] = system: NCI-H650
Method in brief: as §1

[12] = system: A-427
Method in brief: as §1

[13] = system: COR-L23
Method in brief: as §1

[14] = system: NCI-H1650
Method in brief: as §1

[15] = system: NCI-H2087
Method in brief: as §1

[16] = system: EKVX
Method in brief: as §1

[17] = system: NCI-H1915
Method in brief: as §1

[18] = system: SK-MES-1
Method in brief: as §1

[19] = system: NCI-H3122
Method in brief: as §1

[20] = system: NCI-H358
Method in brief: as §1

[21] = system: NCI-H661
Method in brief: as §1

[22] = system: EPLC-272H
Method in brief: as §1

In the case of `Cc1cnc(-c2cnc(NCCNc3ccc(C#N)cn3)nc2-c2ccc(Cl)cc2Cl)[nH]1` + C[C@@H](Oc1cc(-c2cnn(C3CCNCC3)c2)cnc1N)c1c(Cl)ccc(F)c1Cl [Crizotinib] (partner 1 µM), the relative viability ([1]; first compound 0.08 µM) is reported as 0.775, the relative viability ([1]; first compound 0.253 µM) is reported as 0.696 and the relative viability ([1]; first compound 0.8 µM) is reported as 0.664. The relative viability ([1]; first compound 2.53 µM) was 0.688, the relative viability ([2]; first compound 0.08 µM) was 0.781 and the relative viability ([2]; first compound 0.253 µM) was 0.886. The relative viability ([2]; first compound 0.8 µM) was 0.774, the relative viability ([2]; first compound 2.53 µM) was 0.767 and the relative viability ([3]; first compound 0.08 µM) was 0.349. It also gave a relative viability ([3]; first compound 0.253 µM) of 0.336, a relative viability ([3]; first compound 0.8 µM) of 0.297 and a relative viability ([3]; first compound 2.53 µM) of 0.362. It also gave a relative viability ([4]; first compound 0.08 µM) of 1.17, a relative viability ([4]; first compound 0.253 µM) of 0.999 and a relative viability ([4]; first compound 0.8 µM) of 1.06. The relative viability ([4]; first compound 2.53 µM) was 0.989, the relative viability ([5]; first compound 0.08 µM) was 0.74 and the relative viability ([5]; first compound 0.253 µM) was 0.724. The relative viability ([5]; first compound 0.8 µM) was 0.749, the relative viability ([5]; first compound 2.53 µM) was 0.782 and the relative viability ([6]; first compound 0.08 µM) was 0.855. It also gave a relative viability ([6]; first compound 0.253 µM) of 0.807, a relative viability ([6]; first compound 0.8 µM) of 0.951 and a relative viability ([6]; first compound 2.53 µM) of 1.01. The relative viability ([7]; first compound 0.08 µM) was 0.654, the relative viability ([7]; first compound 0.253 µM) was 0.408 and the relative viability ([7]; first compound 0.8 µM) was 0.534. The relative viability ([7]; first compound 2.53 µM) was 0.422, the relative viability ([8]; first compound 0.08 µM) was 0.65 and the relative viability ([8]; first compound 0.253 µM) was 0.636. It also gave a relative viability ([8]; first compound 0.8 µM) of 0.647, a relative viability ([8]; first compound 2.53 µM) of 0.631 and a relative viability ([9]; first compound 0.08 µM) of 0.892. It also gave a relative viability ([9]; first compound 0.253 µM) of 0.816, a relative viability ([9]; first compound 0.8 µM) of 0.997 and a relative viability ([9]; first compound 2.53 µM) of 0.853. The relative viability ([10]; first compound 0.08 µM) was 0.921, the relative viability ([10]; first compound 0.253 µM) was 0.906 and the relative viability ([10]; first compound 0.8 µM) was 0.968. It also gave a relative viability ([10]; first compound 2.53 µM) of 0.927, a relative viability ([11]; first compound 0.08 µM) of 0.786 and a relative viability ([11]; first compound 0.253 µM) of 0.676. It also gave a relative viability ([11]; first compound 0.8 µM) of 0.673, a relative viability ([11]; first compound 2.53 µM) of 0.611 and a relative viability ([12]; first compound 0.08 µM) of 0.911. It also gave a relative viability ([12]; first compound 0.253 µM) of 0.972, a relative viability ([12]; first compound 0.8 µM) of 0.882 and a relative viability ([12]; first compound 2.53 µM) of 0.826. The relative viability ([13]; first compound 0.08 µM) was 0.619, the relative viability ([13]; first compound 0.253 µM) was 0.605 and the relative viability ([13]; first compound 0.8 µM) was 0.833. The relative viability ([13]; first compound 2.53 µM) was 0.722, the relative viability ([14]; first compound 0.08 µM) was 0.92 and the relative viability ([14]; first compound 0.253 µM) was 0.909. The relative viability ([14]; first compound 0.8 µM) was 1.07, the relative viability ([14]; first compound 2.53 µM) was 0.844 and the relative viability ([15]; first compound 0.08 µM) was 0.744. The relative viability ([15]; first compound 0.253 µM) was 0.823, the relative viability ([15]; first compound 0.8 µM) was 0.862 and the relative viability ([15]; first compound 2.53 µM) was 0.693. The relative viability ([16]; first compound 0.08 µM) was 0.938, the relative viability ([16]; first compound 0.253 µM) was 0.823 and the relative viability ([16]; first compound 0.8 µM) was 0.854. The relative viability ([16]; first compound 2.53 µM) was 0.993, the relative viability ([17]; first compound 0.08 µM) was 0.85 and the relative viability ([17]; first compound 0.8 µM) was 0.896. The relative viability ([17]; first compound 2.53 µM) was 0.931, the relative viability ([18]; first compound 0.08 µM) was 0.97 and the relative viability ([18]; first compound 0.253 µM) was 0.937. It also gave a relative viability ([18]; first compound 0.8 µM) of 1.05, a relative viability ([18]; first compound 2.53 µM) of 0.941 and a relative viability ([19]; first compound 0.08 µM) of 0.285. It also gave a relative viability ([19]; first compound 0.253 µM) of 0.319, a relative viability ([19]; first compound 0.8 µM) of 0.253 and a relative viability ([19]; first compound 2.53 µM) of 0.304. For the same compound, the relative viability ([20]; first compound 0.08 µM) was 0.609, the relative viability ([20]; first compound 0.253 µM) was 0.548 and the relative viability ([20]; first compound 0.8 µM) was 0.569. The relative viability ([20]; first compound 2.53 µM) was 0.46, the relative viability ([21]; first compound 0.08 µM) was 0.924 and the relative viability ([21]; first compound 0.253 µM) was 0.941. The relative viability ([21]; first compound 0.8 µM) was 0.947, the relative viability ([21]; first compound 2.53 µM) was 0.867 and the relative viability ([22]; first compound 0.08 µM) was 0.928. For the same compound, the relative viability ([22]; first compound 0.253 µM) was 0.872, the relative viability ([22]; first compound 0.8 µM) was 0.832 and the relative viability ([22]; first compound 2.53 µM) was 0.883.
